Measured values: patent publication US9770026B2, “Substituted pyrimidine compound and uses thereof” (Shenyang Sinochem Agrochemicals R&D Co., Ltd., priority 2012, dated 2017)

Columns and labels:
carmine spider mite = assay: bioactivity test against carmine spider mite, airbrush spray; format: in vivo; conditions: for pest or weed control at 10 µg/mL: 10 mg/L; for pest or weed control at 10 µg/mL / pest or weed control at 100 µg/mL / pest or weed control at 600 µg/mL: read-out: Insecticidal activity against carmine spider mite (% ); for pest or weed control at 100 µg/mL: 100 mg/L
Method in brief: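 Broadbean seedlings infested with adult mites were sprayed with compound (acetone/methanol stock diluted in 0.1% Tween 80 water) by airbrush at 0.7 kg/cm^2, 0.5 ml. Three replicates were run. Mortality was scored after 72 hrs.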

cucumber downy mildew = assay: protectant activity in vivo against cucumber downy mildew; conditions: for pest or weed control at 100 ppm: read-out: protectant activity against cucumber downy mildew in vivo, 100 ppm; for pest or weed control at 400 ppm: read-out: protectant activity against cucumber downy mildew in vivo, 400 ppm
Diamond back moth = assay: insecticidal activity against diamond back moth, airbrush spray; format: in vivo
Method in brief: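 Airbrush leaf-disc spray test: both faces of 2 cm cabbage discs received 0.5 ml of test solution at 0.7 kg/cm^2. Solutions were made in acetone:methanol (1:1) and brought to concentration with 0.1% Tween 80 in water. Ten second-instar larvae per disc, triplicates, were held at 25° C and 60˜70% R.H., with mortality recorded at 72 hrs.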

[1] = system: Green peach aphids (Myzus Persicae Sulzer); assay: bioactivity test against green peach aphid, airbrush foliar spray; format: in vivo; conditions: for pest or weed control at 10 µg/mL: 10 mg/L; for pest or weed control at 100 µg/mL: 100 mg/L
Method in brief: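 Aphids (15-30 per cabbage leaf disc) on moist filter paper were airbrush-sprayed at 10 psi, 0.5 mL, with compound from acetone:methanol (1:1) diluted in water with 0.1% tween 80. Held at 25±1 C, 60±5% RH; survivors counted after 48 hrs to give death rates.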

rice blast = assay: microbe, parasite or virus in culture; format: cell-based; conditions: Pyricularia oryzae; for inhibition at 25 ppm: read-out: inhibition rate against rice blast, 25 ppm, in vitro; for inhibition at 8.3 ppm: read-out: inhibition rate against rice blast, 8.3 ppm, in vitro
cucumber gray mold = assay: fungicidal activity in vitro (inhibition rate) against cucumber gray mold; format: cell-based; conditions: 25 ppm, in vitro; read-out: inhibition rate against cucumber gray mold
wheat powdery mildew = assay: protectant activity in vivo against wheat powdery mildew; conditions: for pest or weed control at 6.25 µg/mL / pest or weed control at 25 µg/mL / pest or weed control at 100 µg/mL / pest or weed control at 400 µg/mL / pest or weed control at 400 ppm: Triticum aestivum, 168 h; for pest or weed control at 6.25 µg/mL: read-out: control effect against wheat powdery mildew (%), 6.25 mg/L; for pest or weed control at 25 µg/mL: read-out: control effect against wheat powdery mildew (%), 25 mg/L; for pest or weed control at 100 µg/mL: read-out: control effect against wheat powdery mildew (%), 100 mg/L; for pest or weed control at 400 µg/mL: read-out: control effect against wheat powdery mildew (%), 400 mg/L; for pest or weed control at 400 ppm: read-out: protectant activity against wheat powdery mildew in vivo, 400 ppm
armyworm = assay: bioactivity test against armyworm, airbrush spray; format: in vivo
corn rust = assay: protectant activity in vivo against corn rust; conditions: Zea mays, 168 h; for pest or weed control at 6.25 µg/mL: read-out: control effect against corn rust (%), 6.25 mg/L; for pest or weed control at 6.25 µg/mL / pest or weed control at 25 µg/mL / pest or weed control at 100 µg/mL / pest or weed control at 400 µg/mL: protectant activity; for pest or weed control at 25 µg/mL: read-out: control effect against corn rust (%), 25 mg/L; for pest or weed control at 100 µg/mL: read-out: control effect against corn rust (%), 100 mg/L; for pest or weed control at 400 µg/mL: read-out: control effect against corn rust (%), 400 mg/L; for pest or weed control at 25 ppm: read-out: protectant activity against corn rust in vivo, 25 ppm; for pest or weed control at 100 ppm: read-out: protectant activity against corn rust in vivo, 100 ppm; for pest or weed control at 400 ppm: read-out: protectant activity against corn rust in vivo, 400 ppm
[2] = Tetranychus cinnabarinus, 72 h, contrastive test
[3] = Tetranychus cinnabarinus, 72 h, 600 mg/L, contrastive test
[4] = Myzus persicae, foliar, 48 h, contrastive test, read-out: Insecticidal activity against peach aphid (%)
[5] = Myzus persicae, foliar, 48 h, 600 mg/L, contrastive test, read-out: Insecticidal activity against peach aphid (%)
[6] = 72 h, 600 mg/L, read-out: Insecticidal activity against armyworm (%)
[7] = Myzus persicae, foliar, 48 h, death rate after 48 hrs

| Structure (SMILES) | pest or weed control at 10 µg/mL (carmine spider mite; [2]) [%] | pest or weed control at 100 µg/mL (carmine spider mite; [2]) [%] | inhibition at 25 ppm (rice blast) [%] | inhibition at 25 ppm (cucumber gray mold) [%] | pest or weed control at 600 µg/mL (carmine spider mite; [3]) [%] | pest or weed control at 600 µg/mL (Diamond back moth; 72 h, 600 mg/L) [%] | pest or weed control at 10 µg/mL [1, 4] [%] | pest or weed control at 100 µg/mL [1, 4] [%] | pest or weed control at 600 µg/mL [1, 5] [%] | inhibition at 8.3 ppm (rice blast) [%] | pest or weed control at 600 µg/mL (armyworm; [6]) [%] | pest or weed control at 6.25 µg/mL (corn rust) [%] | pest or weed control at 25 µg/mL (corn rust) [%] | pest or weed control at 100 µg/mL (corn rust) [%] | pest or weed control at 400 µg/mL (corn rust) [%] | pest or weed control at 6.25 µg/mL (wheat powdery mildew; protectant activity) [%] | pest or weed control at 25 µg/mL (wheat powdery mildew; protectant activity) [%] | pest or weed control at 100 µg/mL (wheat powdery mildew; protectant activity) [%] | pest or weed control at 400 µg/mL (wheat powdery mildew; protectant activity) [%] | pest or weed control at 100 ppm (cucumber downy mildew; Cucumis sativus, 168 h) [%] | also measured |
| --- | --- | --- | --- | --- | --- | --- | --- | --- | --- | --- | --- | --- | --- | --- | --- | --- | --- | --- | --- | --- | --- |
| Cc1ncnc(NCc2ccc(Oc3ncc(C(F)(F)F)cc3Cl)cc2)c1Cl [CK32, reference compound] | 0 | 22 | < 50 | 0 | – | – | – | – | – | – | – | – | – | – | – | – | – | – | – | – | Insecticidal activity against carmine spider mite (% ) (carmine spider mite; 600 mg/L, contrastive test): 91%; control effect against cucumber downy mildew (%) (cucumber downy mildew; 400 mg/L, protectant activity): 60%; Insecticidal activity against diamond back moth (%) (Diamond back moth; 600 mg/L): 0%; Insecticidal activity against peach aphid (%) ([1]; 600 mg/L, contrastive test): 0%; control effect against wheat powdery mildew (%) (wheat powdery mildew; 400 mg/L, protectant activity): 0%; Insecticidal activity against armyworm (%) (armyworm; 600 mg/L): 0% |
| Cc1ncnc(NC(C)c2ccc(Oc3ccc(C(F)(F)F)cc3)cc2)c1Cl (centres unmarked) [CK46, reference compound] | 28 | 63 | < 50 | 0 | 100 | 100 | 0 | 5 | 100 | 0 | 71 | 0 | 0 | 0 | 40 | – | – | – | – | – | pest or weed control at 10 µg/mL (Diamond back moth; 72 h, 10 mg/L): 0%; pest or weed control at 100 µg/mL (Diamond back moth; 72 h, 100 mg/L): 10%; pest or weed control at 10 µg/mL (armyworm; 72 h, 10 mg/L, read-out: Insecticidal activity against armyworm (%)): 0%; pest or weed control at 100 µg/mL (armyworm; 72 h, 100 mg/L, read-out: Insecticidal activity against armyworm (%)): 0% |
| CCc1ncnc(NCc2ccc(Oc3ccc(C(F)(F)F)cc3Cl)cc2)c1Cl [CK48, reference compound] | – | – | < 50 | 0 | – | 40 | 0 | 87 | 100 | 0 | 50 | 0 | 0 | 20 | 60 | 0 | 0 | 0 | 30 | – | – |
| Cc1ncnc(NCc2ccc(Oc3ccc(C(F)(F)F)cc3Cl)cc2)c1Cl [CK51, reference compound] | – | – | – | 0 | – | 57 | 0 | 50 | 100 | 0 | 43 | 0 | 0 | 20 | 80 | 0 | 40 | 80 | 100 | – | – |
| Cc1ncnc(NCCc2ccc(Oc3ccc(C(F)(F)F)cc3)cc2)c1Cl [II-69] | 90 | 100 | 80 to 99 | 80 to 99 | 100 | – | 100 | 100 | 100 | – | – | – | – | – | – | – | – | – | – | 80 to 99 | pest or weed control at 10 ppm (carmine spider mite; Tetranychus cinnabarinus, 72 h, 10 ppm, mortality after 72 hrs): 80 to 99%; pest or weed control at 100 ppm (carmine spider mite; Tetranychus cinnabarinus, 72 h, 100 ppm, mortality after 72 hrs): 100%; pest or weed control at 600 ppm (carmine spider mite; Tetranychus cinnabarinus, 72 h, 600 ppm, mortality after 72 hrs): 100%; pest or weed control at 400 ppm (cucumber downy mildew; Cucumis sativus, 168 h): 100%; pest or weed control at 2.5 µg/mL ([1]; Myzus persicae, foliar, 48 h, 2.5 mg/L, contrastive test, read-out: Insecticidal activity against peach aphid (%)): 81%; pest or weed control at 5 µg/mL ([1]; Myzus persicae, foliar, 48 h, 5 mg/L, contrastive test, read-out: Insecticidal activity against peach aphid (%)): 100%; pest or weed control at 2.5 ppm ([1]; Myzus persicae, foliar, 48 h, 2.5 ppm, death rate after 48 hrs): 80 to 99%; pest or weed control at 5 ppm ([1]; Myzus persicae, foliar, 48 h, 5 ppm, death rate after 48 hrs): 100%; pest or weed control at 10 ppm ([1]; Myzus persicae, foliar, 48 h, 10 ppm, death rate after 48 hrs): 100%; pest or weed control at 100 ppm ([1]; Myzus persicae, foliar, 48 h, 100 ppm, death rate after 48 hrs): 100%; pest or weed control at 600 ppm [1, 7]: 100%; pest or weed control at 400 ppm (wheat powdery mildew): 100%; pest or weed control at 100 ppm (armyworm; 72 h, 100 ppm, mortality after 72 h): 80 to 99%; pest or weed control at 600 ppm (armyworm; 72 h, 600 ppm, mortality after 72 h): 100%; pest or weed control at 25 ppm (corn rust): 100%; pest or weed control at 100 ppm (corn rust): 100%; pest or weed control at 400 ppm (corn rust): 100% |
| FC(F)c1ncnc(NCCc2ccc(Oc3ccc(Cl)cc3Cl)nc2)c1Cl [III-622] | – | – | 80 to 99 | 80 to 99 | – | – | – | – | – | – | – | – | – | – | – | – | – | – | – | 100 | pest or weed control at 6.25 µg/mL (cucumber downy mildew; Cucumis sativus, 168 h, read-out: control effect against cucumber downy mildew (%), 6.25 mg/L, protectant activity): 98%; pest or weed control at 12.5 µg/mL (cucumber downy mildew; Cucumis sativus, 168 h, read-out: control effect against cucumber downy mildew (%), 12.5 mg/L, protectant activity): 100%; pest or weed control at 25 µg/mL (cucumber downy mildew; Cucumis sativus, 168 h, read-out: control effect against cucumber downy mildew (%), 25 mg/L, protectant activity): 100%; pest or weed control at 50 µg/mL (cucumber downy mildew; Cucumis sativus, 168 h, read-out: control effect against cucumber downy mildew (%), 50 mg/L, protectant activity): 100%; pest or weed control at 100 µg/mL (cucumber downy mildew; Cucumis sativus, 168 h, read-out: control effect against cucumber downy mildew (%), 100 mg/L, protectant activity): 100%; pest or weed control at 400 µg/mL (cucumber downy mildew; Cucumis sativus, 168 h, read-out: control effect against cucumber downy mildew (%), 400 mg/L, protectant activity): 100%; pest or weed control at 6.25 ppm (cucumber downy mildew; Cucumis sativus, 168 h, read-out: protectant activity against cucumber downy mildew in vivo, 6.25 ppm): 80 to 99%; pest or weed control at 12.5 ppm (cucumber downy mildew; Cucumis sativus, 168 h, read-out: protectant activity against cucumber downy mildew in vivo, 12.5 ppm): 100%; pest or weed control at 25 ppm (cucumber downy mildew; Cucumis sativus, 168 h, read-out: protectant activity against cucumber downy mildew in vivo, 25 ppm): 100%; pest or weed control at 50 ppm (cucumber downy mildew; Cucumis sativus, 168 h, read-out: protectant activity against cucumber downy mildew in vivo, 50 ppm): 100%; pest or weed control at 400 ppm (cucumber downy mildew; Cucumis sativus, 168 h): 100%; pest or weed control at 600 ppm (Diamond back moth; 72 h, 600 ppm, mortality after 72 hrs, read-out: control (test results against diamond back moth)): 100%; pest or weed control at 600 ppm [1, 7]: 100%; pest or weed control at 400 ppm (wheat powdery mildew): 100%; pest or weed control at 6.25 ppm (corn rust; read-out: protectant activity against corn rust in vivo, 6.25 ppm): 80 to 99%; pest or weed control at 25 ppm (corn rust): 100%; pest or weed control at 100 ppm (corn rust): 100%; pest or weed control at 400 ppm (corn rust): 100% |
